Test system: 317291-083-R-J1-PDC complex spheroids, viability
Experiment: Anticancer human tumor 317291-083-R-J1-PDC patient-derived soft tissue sarcoma cell line growth inhibition [GQUAD]
Conditions: for IC50: curve of first compound; for viability, T/C: stronger effect = lower value
Procedure, shortened: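 Viability of tumor cells grown as complex spheroids with endothelial and stromal cells, exposed to drug combinations. Top concentration at or near clinical Cmax (else 10 microM), diluted in half-log increments.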

[1] = second compound 0.0316 µM, first compound 0.0316 µM
[2] = second compound 0.0316 µM, first compound 0.1 µM
[3] = second compound 0.0316 µM, first compound 0.316 µM
[4] = second compound 0.0316 µM, first compound 1 µM
[5] = second compound 0.0316 µM, first compound 3.16 µM
[6] = second compound 0.0316 µM, first compound 10 µM
[7] = second compound 0.1 µM, first compound 0.0316 µM
[8] = second compound 0.1 µM, first compound 0.1 µM
[9] = second compound 0.1 µM, first compound 0.316 µM
[10] = second compound 0.1 µM, first compound 1 µM
[11] = second compound 0.1 µM, first compound 3.16 µM
[12] = second compound 0.1 µM, first compound 10 µM
[13] = second compound 0.316 µM, first compound 0.0316 µM
[14] = second compound 0.316 µM, first compound 0.1 µM
[15] = second compound 0.316 µM, first compound 0.316 µM
[16] = second compound 0.316 µM, first compound 1 µM
[17] = second compound 0.316 µM, first compound 3.16 µM
[18] = second compound 0.316 µM, first compound 10 µM
[19] = second compound 1 µM, first compound 0.0316 µM
[20] = second compound 1 µM, first compound 0.1 µM
[21] = second compound 1 µM, first compound 0.316 µM
[22] = second compound 1 µM, first compound 1 µM
[23] = second compound 1 µM, first compound 3.16 µM
[24] = second compound 1 µM, first compound 10 µM
[25] = second compound 3.16 µM, first compound 0.0316 µM
[26] = second compound 3.16 µM, first compound 0.1 µM
[27] = second compound 3.16 µM, first compound 0.316 µM
[28] = second compound 3.16 µM, first compound 1 µM
[29] = second compound 3.16 µM, first compound 3.16 µM
[30] = second compound 3.16 µM, first compound 10 µM
[31] = second compound 10 µM, first compound 0.0316 µM
[32] = second compound 10 µM, first compound 0.1 µM
[33] = second compound 10 µM, first compound 0.316 µM
[34] = second compound 10 µM, first compound 1 µM
[35] = second compound 10 µM, first compound 3.16 µM
[36] = second compound 10 µM, first compound 10 µM
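Note: spheroids exposed to compounds for one week before readout.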
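Throughout, for viability, T/C: percent viability relative to DMSO vehicle wells taken as 100%.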

## C=CCn1c(=O)c2cnc(Nc3ccc(N4CCN(C)CC4)cc3)nc2n1-c1cccc(C(C)(C)O)n1 + Cc1[nH]c2ccc(F)cc2c1-c1nc2c3cccnc3c3ncccc3c2[nH]1
Second compound 0.0316 µM
  IC50: 119 nM
Second compound 0.1 µM
  IC50: 137 nM
Second compound 0.316 µM
  IC50: 58 nM
Second compound 1 µM
  IC50: 39.5 nM
Second compound 3.16 µM
  IC50: < 31.6 nM
Second compound 10 µM
  IC50: < 31.6 nM
[1]
  viability, T/C: 80.5%
[2]
  viability, T/C: 55.3%
[3]
  viability, T/C: 21.7%
[4]
  viability, T/C: 17.8%
[5]
  viability, T/C: 8.57%
[6]
  viability, T/C: 9.56%
[7]
  viability, T/C: 87%
[8]
  viability, T/C: 59.7%
[9]
  viability, T/C: 24.4%
[10]
  viability, T/C: 12.8%
[11]
  viability, T/C: 12%
[12]
  viability, T/C: 11.9%
[13]
  viability, T/C: 61.1%
[14]
  viability, T/C: 40.1%
[15]
  viability, T/C: 17.3%
[16]
  viability, T/C: 11.3%
[17]
  viability, T/C: 10.9%
[18]
  viability, T/C: 8.81%
[19]
  viability, T/C: 56%
[20]
  viability, T/C: 25%
[21]
  viability, T/C: 15.8%
[22]
  viability, T/C: 7.15%
[23]
  viability, T/C: 8.02%
[24]
  viability, T/C: 10.3%
[25]
  viability, T/C: 25.2%
[26]
  viability, T/C: 12.5%
[27]
  viability, T/C: 9.21%
[28]
  viability, T/C: 5.63%
[29]
  viability, T/C: 8.76%
[30]
  viability, T/C: 6.68%
[31]
  viability, T/C: 33.5%
[32]
  viability, T/C: 21.5%
[33]
  viability, T/C: 13.4%
[34]
  viability, T/C: 9.85%
[35]
  viability, T/C: 8.36%
[36]
  viability, T/C: 9.58%

## CC(C)(O)C1CCC(Nc2ccc3ncc(-c4cccc(C(F)(F)F)c4)n3n2)CC1 (stereo unspecified) + Cc1[nH]c2ccc(F)cc2c1-c1nc2c3cccnc3c3ncccc3c2[nH]1
Second compound 0.0316 µM
  IC50: 647 nM
Second compound 0.1 µM
  IC50: 576 nM
Second compound 0.316 µM
  IC50: 421 nM
Second compound 1 µM
  IC50: 114 nM
Second compound 3.16 µM
  IC50: < 31.6 nM
Second compound 10 µM
  IC50: < 31.6 nM
[1]
  viability, T/C: 102%
[2]
  viability, T/C: 102%
[3]
  viability, T/C: 85.9%
[4]
  viability, T/C: 28.2%
[5]
  viability, T/C: 0.62%
[6]
  viability, T/C: 0.37%
[7]
  viability, T/C: 91%
[8]
  viability, T/C: 85%
[9]
  viability, T/C: 77.1%
[10]
  viability, T/C: 25.4%
[11]
  viability, T/C: 0.16%
[12]
  viability, T/C: 0.74%
[13]
  viability, T/C: 61.8%
[14]
  viability, T/C: 70.9%
[15]
  viability, T/C: 61.6%
[16]
  viability, T/C: 14.3%
[17]
  viability, T/C: 0.22%
[18]
  viability, T/C: 0.17%
[19]
  viability, T/C: 58.1%
[20]
  viability, T/C: 43%
[21]
  viability, T/C: 45.1%
[22]
  viability, T/C: 8.74%
[23]
  viability, T/C: 0.32%
[24]
  viability, T/C: 0.16%
[25]
  viability, T/C: 29.5%
[26]
  viability, T/C: 19.8%
[27]
  viability, T/C: 24.1%
[28]
  viability, T/C: 7.5%
[29]
  viability, T/C: 0.94%
[30]
  viability, T/C: 0.2%
[31]
  viability, T/C: 41%
[32]
  viability, T/C: 38.6%
[33]
  viability, T/C: 44.5%
[34]
  viability, T/C: 14.2%
[35]
  viability, T/C: 0.55%
[36]
  viability, T/C: 0.82%

## CCCS(=O)(=O)Nc1ccc(F)c(C(=O)c2c[nH]c3ncc(-c4ccc(Cl)cc4)cc23)c1F + Cc1[nH]c2ccc(F)cc2c1-c1nc2c3cccnc3c3ncccc3c2[nH]1
Second compound 0.0316 µM
  IC50: 2610 nM
Second compound 0.1 µM
  IC50: 2610 nM
Second compound 0.316 µM
  IC50: 1760 nM
Second compound 1 µM
  IC50: 343 nM
Second compound 3.16 µM
  IC50: < 31.6 nM
Second compound 10 µM
  IC50: < 31.6 nM
[1]
  viability, T/C: 110%
[2]
  viability, T/C: 103%
[3]
  viability, T/C: 95.6%
[4]
  viability, T/C: 89.2%
[5]
  viability, T/C: 41.7%
[6]
  viability, T/C: 14.3%
[7]
  viability, T/C: 95.5%
[8]
  viability, T/C: 88.3%
[9]
  viability, T/C: 83.5%
[10]
  viability, T/C: 94.3%
[11]
  viability, T/C: 41.9%
[12]
  viability, T/C: 14%
[13]
  viability, T/C: 73.5%
[14]
  viability, T/C: 72.5%
[15]
  viability, T/C: 67.1%
[16]
  viability, T/C: 67.8%
[17]
  viability, T/C: 31.7%
[18]
  viability, T/C: 10.3%
[19]
  viability, T/C: 62.1%
[20]
  viability, T/C: 61%
[21]
  viability, T/C: 41.5%
[22]
  viability, T/C: 41.6%
[23]
  viability, T/C: 37.7%
[24]
  viability, T/C: 11.3%
[25]
  viability, T/C: 46%
[26]
  viability, T/C: 26.5%
[27]
  viability, T/C: 30.2%
[28]
  viability, T/C: 19.9%
[29]
  viability, T/C: 15.9%
[30]
  viability, T/C: 5.4%
[31]
  viability, T/C: 40.7%
[32]
  viability, T/C: 47.5%
[33]
  viability, T/C: 42.4%
[34]
  viability, T/C: 49.3%
[35]
  viability, T/C: 25.3%
[36]
  viability, T/C: 6.95%
